The values that follow come from US8299066B2, “Compounds having NPY Y5 receptor antagonistic activity” (Shionogi & Co., Ltd., priority 2008, dated 2012).

SMILES strings stand for the structures.

One data set concerns the target T1, mouse NPY Y5 receptor (Mus musculus, UniProt O70342).
T1 construct: expressed in transfected cells
T1 sequence (O70342 1-466): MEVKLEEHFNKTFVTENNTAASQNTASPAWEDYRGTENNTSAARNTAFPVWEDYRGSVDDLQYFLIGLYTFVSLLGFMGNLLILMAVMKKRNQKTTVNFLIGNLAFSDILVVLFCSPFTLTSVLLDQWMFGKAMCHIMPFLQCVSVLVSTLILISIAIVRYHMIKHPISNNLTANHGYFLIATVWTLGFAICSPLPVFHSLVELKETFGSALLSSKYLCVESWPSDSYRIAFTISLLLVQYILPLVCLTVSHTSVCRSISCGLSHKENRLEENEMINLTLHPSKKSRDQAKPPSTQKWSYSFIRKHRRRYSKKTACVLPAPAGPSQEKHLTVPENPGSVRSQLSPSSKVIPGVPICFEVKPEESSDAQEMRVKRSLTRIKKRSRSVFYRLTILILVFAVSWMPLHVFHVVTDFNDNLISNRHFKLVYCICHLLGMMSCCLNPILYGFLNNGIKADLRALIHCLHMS
As to the kind of experiment: Affinity for mouse NPY Y5 receptor ([125I] peptide YY binding, CHO cell membranes). Conditions: inhibition of specific [125I] peptide YY binding, membranes of CHO cells expressing mouse NPY Y5 receptor. The source says:
cDNA sequence encoding a mouse NPY Y5 receptor (Biochim. Biophys. Acta 1328:83-89, 1997) was cloned in a vector (pME18S, Takebe et al. Mol. Cell. Biol. 8, 8957). The obtained expression vector was transfected into CHO cells as a host by using Lipofect AMINE Reagent (Trademark, Gico BRL Co., Ltd.) according to the instruction manual. The cells that stably express NPY Y5 receptor were obtained.
The membranes prepared from the CHO cells expressing NPY Y5 receptor, the compound of this invention and 30,000 cpm [^125I] peptide YY (60 pM of final concentration: Amersham) were incubated in the assay buffer (20 mM HEPES-Hanks buffer containing 0.1% bovine serum albumin, pH 7.4) at 25° C. for 2 hours, and then the membrane was filtered from the mixture through a glass filter (GF/C) presoaked with 1% polyethyleneimine. After washing with 50 mM Tris-HCl buffer (pH 7.4), radioactivity retained on the filters was quantified with a gamma counter. Nonspecific binding was defined as the amount of radioactivity bound to the membranes after incubation in the presence of 200 nM of peptide YY. The 50% inhibitory concentration of the test compound against the specific peptide YY binding (IC50 value) was calculated (Inui, A. et al. Endocrinology 131, 2090-2096 (1992)).

Data set [1] in a line: Pharmacokinetic analysis in rats (cassette dosing, intravenous). The class given is in vivo. Particulars: male, Crl, CD (SD), rat, plasma, intravenous administration (0.5 mg/mL/kg); for clearance: read-out: Rat CLtot; for half-life: read-out: Rat t½ (converted). On the procedure:
By using the cassette dosing method, half-life (t1/2) and total clearance (CLtot) of the compounds of this invention were estimated from change in plasma concentration of each compound in rats (Crl; CD (SD), ♂, 8 weeks) after intravenous administration (0.5 mg/mL/kg).

The nature of data set [2]: Evaluation for brain penetration in rats (cassette dosing). The class given is in vivo. Conditions: male, Crl; CD (SD), rat; brain/plasma partition coefficient, 30 minutes after intravenous administration (0.5 mg/mL/kg) in rats. On the procedure:
(§1) By using the cassette dosing method (Drug. Metab. Dispos. (2001); 29, 957-966), brain penetration rate of the compounds (brain/plasma partition coefficients; Kp) were evaluated from plasma and brain concentrations at 30 minutes after intravenous administration (0.5 mg/mL/kg) in rats (Crl; CD (SD), ♂, 8 weeks) or at 3 or 5 hours after oral administration (2 mg/10 mL/kg) in mice (Jcl; C57BL/6J, ♂, 8 weeks).

Data set [3] can be described thus: Evaluation for brain penetration in mice (cassette dosing). Conditions: male, Jcl; C57BL/6J, mouse; brain/plasma partition coefficient, 3 or 5 hours after oral administration (2 mg/10 mL/kg) in mice. Type of data set: in vivo. On the procedure:
as §1

The target of another data set is T2, NPY Y5 receptor (Mus musculus, UniProt O70342).
T2 construct: from tissue
T2 sequence (O70342 1-466): T1 sequence (O70342 1-466)
As to the kind of experiment: Food intake in mice induced by ICV NPY Y5 receptor specific agonist. The class given is in vivo. On the procedure: Under diethylether anesthesia the skull of male C57BL/6J mice (12-14 week old, 25-30 g) was exposed by making an incision about 1-cm long from external occipital crest to nasal dorsum, and drilled in the 1-mm lateral position to the left following 1-mm posterior from bregma. After recovery from anesthesia mice were dosed with either 0.5% hydroxypropylmethyl cellulose solution (Shin-Etsu Chemical Co., Ltd) or the compounds of this invention suspended in the 0.5% hydroxypropylmethyl cellulose solution. At one hour after the treatment, each animal received a NPY Y5 receptor specific agonist, [cPP^1-7, NPY^19-23, Ala^31, Aib^32, Gln^34]-hPancreatic Polypeptide (0.1 nmol/1.5 μL/mouse) through the skull opening using a canula. Residual food was measured at 2 and 4 hours after the treatment, and the difference in food intake between the compounds-treated mice and 0.5% hydroxypropylmethyl cellulose solution-treated mice was calculated. The compound at 6 mg/kg caused a significant reduction in food intake of mice compared to the treatment with 0.5% hydroxypropylmethyl cellulose solution.
For example, mean food intakes at 2 and 4 hours after oral administration of Compound IVa-9 at 6 mg/kg in mice (Group A) were 0.24±0.05 g and 0.51±0.06 g, respectively. On the other hand, mean food intakes at 2 and 4 hours after oral administration of 0.5% hydroxypropylmethyl cellulose solution in mice (Group B) were 0.58±0.07 g and 1.26±0.10 g, respectively. Also, mean food intakes at 2 and 4 hours after oral administration of 0.5% hydroxypropylmethyl cellulose solution without ICV injection of NPY Y5 receptor specific agonist in mice (Group C) were 0.06±0.04 g and 0.14±0.05 g, respectively. After subtracting the mean value of Group C from that of Group A or B, the inhibition rates of the compound on food intake at 2 and 4 hours after administration in Group A against Group B were estimated.

A word on the IC50: it is the concentration at which inhibition is half-maximal. A low value points to inhibition by little substance. `CC(C)(C)S(=O)(=O)N[C@H]1CC[C@H](c2nc(-c3ccccc3)c[nH]2)CC1` [IIIa-1]: the IC50 on mouse NPY Y5 receptor stood at 0.85 nM.
As to `CC(C)(C)S(=O)(=O)N[C@H]1CC[C@H](c2nc(-c3ccccc3)c(C(F)(F)F)[nH]2)CC1` [IIIb-5], in data set [1], the clearance turned out to be 3.84 mL/min/kg and the half-life is 460 min.
`CC(C)(C)S(=O)(=O)N[C@H]1CC[C@H](c2cc3nc(-c4ccccn4)ccc3[nH]2)CC1` [Ib-14]: at mouse NPY Y5 receptor, the IC50 stood at 0.29 nM.
In general, Kp refers to tissue or fluid exposure divided by exposure in the circulation. In the case of `CC(C)(C)S(=O)(=O)N[C@H]1CC[C@H](c2cc(-c3ccc(F)cc3)n[nH]2)CC1` [IVa-9], the Kp at 0.5 h in data set [2] was 2.28. This compound also came in with a concentration ratio (Kp) at 5 h in data set [3] of 2.41. In data set [1], the clearance amounted to 2.67 mL/min/kg and the half-life was 816 min. For the same compound, at NPY Y5 receptor (6 mg/kg oral, Group A against Group B after subtracting Group C, 2 hours), the “inhibition rate on food intake at 2 hours” value came to 65.4%. For the same compound, the “inhibition rate on food intake at 4 hours” value at NPY Y5 receptor (6 mg/kg oral, Group A against Group B after subtracting Group C, 4 hours) is on record as 67.0%. Further, at NPY Y5 receptor (oral administration at 6 mg/kg in mice, ICV NPY Y5 agonist, 2 hours), the “mean food intake at 2 hours” value came to 0.24 ± 0.05 g. In addition, the “mean food intake at 4 hours” value at NPY Y5 receptor (oral administration at 6 mg/kg in mice, ICV NPY Y5 agonist, 4 hours) was found to be 0.51 ± 0.06 g.
On mouse NPY Y5 receptor, `CC(C)(C)S(=O)(=O)N[C@H]1CC[C@H](c2cc3ccc(-c4ccccn4)cc3[nH]2)CC1` [Ia-18] displayed an IC50 of 5.5 nM.
The compound `CC(C)(C)S(=O)(=O)N[C@H]1CC[C@H](c2cc3cc(-c4ccccn4)ccc3[nH]2)CC1` [Ia-7] had a half-maximal inhibitory concentration (IC50) at mouse NPY Y5 receptor of 0.28 nM.
On the same count and under the same terms, as for `CC(C)(C)S(=O)(=O)N[C@H]1CC[C@H](c2cc3cc(-c4ccccn4)cnc3[nH]2)CC1` [Ib-32], the figure is 0.75 nM.
`CC(C)(C)S(=O)(=O)N[C@H]1CC[C@H](c2cc3cc(-c4ncccn4)ccc3[nH]2)CC1` [Ia-8]: in data set [2], the Kp at 0.5 h was 3.55. Further, the Kp at 5 h in data set [3] was found to be 2.11. Besides, in data set [1], the clearance came out at 17.8 mL/min/kg and the half-life is 94.2 min.
At mouse NPY Y5 receptor, `CC(C)(C)S(=O)(=O)N[C@H]1CC[C@H](c2cc3c(-c4ccccn4)cncc3[nH]2)CC1` [Ib-28] registered an IC50 of 1.3 nM.
In the case of `CC(C)(C)S(=O)(=O)N[C@H]1CC[C@H](c2nc(-c3cccc(Cl)c3)n[nH]2)CC1` [Va-5], in data set [1], the clearance came out at 3.82 mL/min/kg and the half-life is 546 min.
For the compound `CC(C)(C)S(=O)(=O)N[C@H]1CC[C@H](c2cc3c(-c4ccccn4)cccc3[nH]2)CC1` [Ia-2], at mouse NPY Y5 receptor, the IC50 was found to be 1.1 nM.
In the case of `CC(C)(C)S(=O)(=O)N[C@H]1CC[C@H](c2nc(-c3cccc(C#N)c3)c[nH]2)CC1` [IIIa-13], in data set [1], the clearance turned out to be 14.5 mL/min/kg and the half-life was 70.2 min.
Compound `CC(C)(C)S(=O)(=O)N[C@H]1CC[C@H](c2cc3nc(-c4ccccc4F)ccc3[nH]2)CC1` [Ib-13] came in with a Kp at 0.5 h in data set [2] of 2.3. In data set [3], this compound showed a Kp at 5 h of 1.33.
The like results for `CC(C)(C)S(=O)(=O)N[C@H]1CC[C@H](c2cc3nc(-c4ccc(F)cc4)ncc3[nH]2)CC1` [Ib-35] were, in that order, 1.91 and 0.89.
As for `CC(C)(C)S(=O)(=O)N[C@H]1CC[C@H](c2nc(-c3ccccc3)c(Cl)[nH]2)CC1` [IIIb-1], in data set [1], the clearance was found to be 3.46 mL/min/kg and the half-life is 242 min.
At mouse NPY Y5 receptor, `CC(C)(C)S(=O)(=O)N[C@H]1CC[C@H](c2[nH]cc(-c3ccccc3)c2C#N)CC1` [IIa-3] yielded an IC50 of 0.22 nM.
`CC(C)(C)S(=O)(=O)N[C@H]1CC[C@H](c2[nH]nc(-c3ccccc3)c2F)CC1` [IVb-3] showed a Kp at 0.5 h in data set [2] of 5.84. For the same compound, the Kp at 5 h in data set [3] is 3.14. In data set [1], the clearance came out at 4.04 mL/min/kg and the half-life was 488 min.
As to `COc1cccc(-c2nc([C@H]3CC[C@H](NS(=O)(=O)C(C)(C)C)CC3)[nH]c2C(F)(F)F)c1` [IIIb-7], at mouse NPY Y5 receptor, the IC50 was 0.7 nM.
Consider `CC(C)(C)S(=O)(=O)N[C@H]1CC[C@H](c2nc(-c3ccc(Cl)c(Cl)c3)c[nH]2)CC1` [IIIa-4], for which the partition ratio (Kp) at 0.5 h in data set [2] is 1.37. This compound gave a Kp at 5 h in data set [3] of 0.45. In addition, in data set [1], the clearance came to 14.8 mL/min/kg and the half-life is 178 min.
The compound `CC(C)(C)S(=O)(=O)N[C@H]1CC[C@H](c2[nH]nc(-c3ccccc3)c2C#N)CC1` [IVb-23] had an IC50 at mouse NPY Y5 receptor of 0.37 nM.
Turning to `CC(C)(C)S(=O)(=O)N[C@H]1CC[C@H](c2cc(-c3ccccc3)n[nH]2)CC1` [IVa-3], the concentration for half-maximal inhibition (IC50) on mouse NPY Y5 receptor came to 1.4 nM. Also, the partition ratio (Kp) at 0.5 h in data set [2] was determined as 3.69. This compound also had a Kp at 5 h in data set [3] of 1.78. Also, in data set [1], the clearance amounted to 7.43 mL/min/kg and the half-life was 229 min.
Regarding `CC(C)(C)S(=O)(=O)N[C@H]1CC[C@H](c2nc(-c3ccccc3)n[nH]2)CC1` [Va-2], at mouse NPY Y5 receptor, the IC50 was 2.2 nM. In addition, in data set [1], the clearance came to 2.6 mL/min/kg and the half-life was 384 min.
Turning to `Cc1c(-c2ccccc2)n[nH]c1[C@H]1CC[C@H](NS(=O)(=O)C(C)(C)C)CC1` [IVb-1], the Kp at 0.5 h in data set [2] came to 1.88. This compound yielded a Kp at 5 h in data set [3] of 1.44.
